Assay results as given in US20220221458A1, “NOROVIRUS-BINDING PEPTIDE” (Kao Corporation, priority 2019, published 2022).

These substances were tested on norovirus VLPs (GII.4, GII.3, GII.17) (assay: In vitro selection by cDNA display against VLPs with appearance frequency analysis of sequences). Details: count among peptide aptamer sequences obtained after in vitro selection cycles (7 cycles GII.4, 5 cycles GII.3 and GII.17).
Procedure: The constructed cDNA display and VLPs were incubated in 100 μL of a dialysis selection buffer (20 mM HEPES (pH 7.4), 150 mM NaCl, and 0.05% s Tween 20) at the concentrations shown in Table 9 below at 25° C. for 30 minutes. Subsequently, the resultant was diluted to 1 mL with the dialysis selection buffer, and was put in Float-A-Lyzer G2 Dialysis Device CE, 1000kD MWCO (manufactured by Spectrum Laboratories, Inc.) and was dialyzed with 1 L of the dialysis selection buffer as the external solution at 25° C. During the dialysis, the external solution was replaced with new one 3 times every 2 hours, and the dialysis was performed overnight (for 8 hours) after the 4th replacement. The dialysis product was concentrated with Amicon Ultra 100K (manufactured by Merck Millipore S.A.S.) at 14,000×g for 5 minutes.
To an immunoplate (C-BOTTOM, CLEAR, MICROLON (registered trademark), HIGH BINDING, manufactured by Greiner Bio-One), 100 μL of 3 μg/mL GII.3 or GII.17 VLP solution was added and immobilization was performed at 4° C. overnight. Subsequently, the solution was discarded, and 200 μL of a blocking agent (EMD Millipore™ Blok™ NSB Blocking agents, Thermo Fisher Scientific) was added, followed by gently stirring at room temperature for 2 hours for blocking. On this occasion, wells not immobilizing the VLP were also subjected to similar blocking to be used in preselection.
The solution was discarded from the wells, the wells were washed with 200 μL of a wash buffer (10 mM Hepes (pH 7.4), 150 mM NaCl, and 0.05% Tween 20) three times, and 100 μL of cDNA display (constructed from 1.5 pmol of mRNA-linker) was then put in the wells not immobilizing the VLP, followed by gently stirring at room temperature for 30 minutes to perform preselection. Subsequently, the supernatant containing cDNA display that had not bound to the blocking agent was put in the wells immobilizing the VLP, followed by gently stirring at room temperature for 30 minutes to be bound to the VLP. The supernatant was discarded, washing with 100 μL of the wash buffer was performed four times, and 100 μL of a 5′ SDS solution was then added, followed by incubation at 50° C. for 15 minutes to elute the bound cDNA display.
Subsequently, the VLP-cDNA display complex obtained above was diluted to 100 μL with a dialysis selection buffer, and 10 μL of a coprecipitating agent (Quick-Precip Plus Solution, manufactured by EdgeBio) and 220 μL of 100% ethanol were added, followed by centrifugation at 20,000×g for 5 minutes. Subsequently, the supernatant was discarded, and 1 mL of 70, ethanol was added for rinsing. […] The PCR program was (a) 98° C. for 2 minutes, (b) 95° C. for 20 seconds, (c) 69° C. for 20 seconds, (d) 72° C. for 20 seconds (steps (b) to (d) were performed 25 cycles), and (e) 72° C. for 1 minute.
After the in vitro selection cycle (7 cycles for GII.4 and 5 cycles for GII.3 and GII.17 based on the libraries of 7 cycles obtained by GII.4 dialysis), a sequence library was prepared by the following method, and the sequence information was analyzed. The preparation of the sequence library and the sequencing were performed according to the 16S Metagenomic Sequencing Library Preparation protocol (manufactured by Illumina, Inc.).
The Fastq file of the obtained sequence was converted to a Fasta file, all of the obtained sequences were simultaneously translated from the first base of the start codon (ATG) at position 115 to the third base of the cysteine codon (TGC) at position 156 of the library sequence (SEQ ID NO: 279) using software MEGA.
“10 (GHHVSV; Designed peptide) [compound 10]” was tested, and the “Appearance Frequency” value was 15. For “136 (PVLHLH; Designed peptide) [compound 136]”, the “Appearance Frequency” value was 7. With “194 (HQTGRL; Designed peptide) [compound 194]” the “Appearance Frequency” value was 6. In the case of “215 (NAVSLK; Designed peptide) [compound 215]”, the “Appearance Frequency” value is reported as 6. “134 (NPKAHL; Designed peptide) [compound 134]” was tested, and the “Appearance Frequency” value was 7. In the case of “114 (GSLDIM; Designed peptide) [compound 114]”, the “Appearance Frequency” value is reported as 7. For “174 (FGFREL; Designed peptide) [compound 174]”, the “Appearance Frequency” value was 6. “51 (VMCPNR; Designed peptide) [compound 51]” was tested, and the “Appearance Frequency” value was 10. With “57 (HVRPFY; Designed peptide) [compound 57]” the “Appearance Frequency” value was 9. In the case of “123 (KRGGMV; Designed peptide) [compound 123]”, the “Appearance Frequency” value is reported as 7. With “133 (NKYSHR; Designed peptide) [compound 133]” the “Appearance Frequency” value was 7. In the case of “27 (VHYRQT; Designed peptide) [compound 27]”, the “Appearance Frequency” value is reported as 12. “142 (RIVGSA; Designed peptide) [compound 142]” was tested, and the “Appearance Frequency” value was 7. With “128 (LWNMYD; Designed peptide) [compound 128]” the “Appearance Frequency” value was 7. For “235 (RHTQTL; Designed peptide) [compound 235]”, the “Appearance Frequency” value was 6. “12 (LNWSRS; Designed peptide) [compound 12]” was tested, and the “Appearance Frequency” value was 15. With “195 (HSSLVT; Designed peptide) [compound 195]” the “Appearance Frequency” value was 6. In the case of “122 (ISRRGH; Designed peptide) [compound 122]”, the “Appearance Frequency” value is reported as 7. “178 (GAKELS; Designed peptide) [compound 178]” was tested, and the “Appearance Frequency” value was 6. For “103 (AHLHCD; Designed peptide) [compound 103]”, the “Appearance Frequency” value was 7. With “181 (GKVTFD; Designed peptide) [compound 181]” the “Appearance Frequency” value was 6. “81 (HRSNGH; Designed peptide) [compound 81]” was tested, and the “Appearance Frequency” value was 8. “190 (HKASHW; Designed peptide) [compound 190]” was tested, and the “Appearance Frequency” value was 6. For “107 (FRECLY; Designed peptide) [compound 107]”, the “Appearance Frequency” value was 7. With “36 (VNGVSH; Designed peptide) [compound 36]” the “Appearance Frequency” value was 11. With “205 (KHAWDL; Designed peptide) [compound 205]” the “Appearance Frequency” value was 6. In the case of “179 (GCLSHH; Designed peptide) [compound 179]”, the “Appearance Frequency” value is reported as 6. For “219 (NKSFHR; Designed peptide) [compound 219]”, the “Appearance Frequency” value was 6. With “87 (SIESCL; Designed peptide) [compound 87]” the “Appearance Frequency” value was 8. With “22 (GLRYRE; Designed peptide) [compound 22]” the “Appearance Frequency” value was 12. In the case of “193 (HMMSRL; Designed peptide) [compound 193]”, the “Appearance Frequency” value is reported as 6. “5 (RCSHLR; Designed peptide) [compound 5]” was tested, and the “Appearance Frequency” value was 18. For “173 (EEKTRR; Designed peptide) [compound 173]”, the “Appearance Frequency” value was 6. For “153 (TTKYMW; Designed peptide) [compound 153]”, the “Appearance Frequency” value was 7. With “232 (RGHPST; Designed peptide) [compound 232]” the “Appearance Frequency” value was 6. In the case of “120 (IGKGMV; Designed peptide) [compound 120]”, the “Appearance Frequency” value is reported as 7. With “149 (SDRVIA; Designed peptide) [compound 149]” the “Appearance Frequency” value was 7. For “201 (IKAHTR; Designed peptide) [compound 201]”, the “Appearance Frequency” value was 6. In the case of “164 (AKQRFT; Designed peptide) [compound 164]”, the “Appearance Frequency” value is reported as 6. For “185 (GRNAGR; Designed peptide) [compound 185]”, the “Appearance Frequency” value was 6. For “160 (WAGHRH; Designed peptide) [compound 160]”, the “Appearance Frequency” value was 7. “161 (WVYARR; Designed peptide) [compound 161]” was tested, and the “Appearance Frequency” value was 7. For “131 (NHCPSR; Designed peptide) [compound 131]”, the “Appearance Frequency” value was 7. “61 (PVRALC; Designed peptide) [compound 61]” was tested, and the “Appearance Frequency” value was 9. “206 (KSMNNG; Designed peptide) [compound 206]” was tested, and the “Appearance Frequency” value was 6. With “73 (EWAVSK; Designed peptide) [compound 73]” the “Appearance Frequency” value was 8. With “147 (RSSSGR; Designed peptide) [compound 147]” the “Appearance Frequency” value was 7. With “255 (STLVCP; Designed peptide) [compound 255]” the “Appearance Frequency” value was 6. For “129 (MHSSLS; Designed peptide) [compound 129]”, the “Appearance Frequency” value was 7. In the case of “175 (FPFYHR; Designed peptide) [compound 175]”, the “Appearance Frequency” value is reported as 6. With “115 (GVNSGH; Designed peptide) [compound 115]” the “Appearance Frequency” value was 7. With “48 (VDSTSV; Designed peptide) [compound 48]” the “Appearance Frequency” value was 10. In the case of “257 (TNRTVS; Designed peptide) [compound 257]”, the “Appearance Frequency” value is reported as 6. For “258 (TNYLSF; Designed peptide) [compound 258]”, the “Appearance Frequency” value was 6. For “60 (NTHRHS; Designed peptide) [compound 60]”, the “Appearance Frequency” value was 9. For “32 (IMSSIG; Designed peptide) [compound 32]”, the “Appearance Frequency” value was 11. With “263 (VSDPVV; Designed peptide) [compound 263]” the “Appearance Frequency” value was 6. In the case of “77 (GMLRFP; Designed peptide) [compound 77]”, the “Appearance Frequency” value is reported as 8. For “95 (VGHVNW; Designed peptide) [compound 95]”, the “Appearance Frequency” value was 8. “70 (AVGCHV; Designed peptide) [compound 70]” was tested, and the “Appearance Frequency” value was 8. With “184 (GPCNSA; Designed peptide) [compound 184]” the “Appearance Frequency” value was 6. With “82 (ILGGHS; Designed peptide) [compound 82]” the “Appearance Frequency” value was 8. With “94 (TVASNN; Designed peptide) [compound 94]” the “Appearance Frequency” value was 8. In the case of “106 (FPTGTT; Designed peptide) [compound 106]”, the “Appearance Frequency” value is reported as 7. “16 (LSKHSR; Designed peptide) [compound 16]” was tested, and the “Appearance Frequency” value was 13. With “17 (RIGHMR; Designed peptide) [compound 17]” the “Appearance Frequency” value was 13.
